{"source": "patent US9180171B2", "about": "“Method of regulating fertilizing ability using cyclic ADP-ribose and CD38” (Industrial Cooperation Foundation Chonbuk National …, priority 2011, dated 2015)", "key": {"sperm [1]": {"test_system": "sperm", "assay": "Measurement of calcium in sperm cells (fluo-3, confocal microscopy)", "assay_type": "cell-based, human", "procedure": "In order to measure intracellular calcium release, the sperm suspension pretreated with fluo-3 (molecular probe, USA) was titrated in a confocal dish (SPL, Seoul, Korea) coated with poly-L-lysine (Sigma-Aldrich, USA) and was allowed to react in a CO2 incubator for 20 minutes to attach the cells. Calcium in the cells was measured by a confocal microscopy system (Nikon) using the method of Tsien et al. (Tsien et al., Nature 295, 68-71 (1982))."}, "mouse oocytes": {"test_system": "mouse oocytes", "assay": "In vitro fertilization test", "assay_type": "cell-based, mice", "settings": "prostasome-bound sperm pretreated with antagonist", "procedure": "In vitro fertilization was performed using a modification of the method of Ren et al. (Ren et al., Nature 413, 603-609 (2001)). 10-12-week-old mice were injected with pregnant mare serum gonadotropin (PMSG) (5 IU; Sigma-Aldrich), and after 48 hours, injected with human chorionic gonadotropin (hCG) (5 IU; Sigma-Aldrich). 14 hours after the final injection, the uterine tube was removed and perfused with IVF medium (Medicult, USA), and the released oocytes were collected using a low-magnification microscope. In order to collect sperm, the epididymis of male mice was removed and cut into small pieces with scissors in the same medium, and swum-out sperm were collected. The number of cells in the sperm was measured, and the sperm were used in the test."}, "sperm [2]": {"test_system": "sperm", "assay": "Test for motility of sperm by CD38", "assay_type": "cell-based", "settings": "for CD38-induced increase in motility of sperm with inhibitor: sperm treated with inhibitor, then CD38; for motility of sperm: sperm treated with CD38", "procedure": "The relationship between CD31 activation by CD38 and sperm motility was analyzed. […] Also, it was seen that, when sperm were treated with the ERK1/2 inhibitor PD98059 and the ras-GTP inhibitor (FTI-277) and then treated with CD38, the increase in the motility of the sperm was inhibited."}, "sperm [3]": {"test_system": "sperm", "assay": "Acrosome reaction of sperm by CD38 (ConA-FITC, A23187)", "assay_type": "cell-based", "settings": "for acrosome reaction of CD38-treated sperm with inhibitor: inhibitor of downstream signaling of CD31", "procedure": "To examine the acrosome reaction of sperm, ConA-FITC binding specifically to the acrosome of sperm was used. The isolated sperm were allowed to react with purified CD38 at 37° C. for 2 hours, and then were treated for 40 min with calcium ionophore A23187 that increases calcium in sperm to induce the acrosome reaction of sperm. Then, the sperm were placed on a glass slide, and the acrosome reaction of the sperm was examined with a fluorescence microscope."}, "sperm [4]": {"test_system": "sperm", "assay": "Formation of cGDPR, cyclic ADP-ribose and NAADP in prostasome-bound or -unbound sperm", "assay_type": "cell-based, human", "procedure": "The isolated sperm were diluted with a weakly alkaline buffer or fusion buffer (150 mM NaCl, 1 mM CaCl2, 1 mM MgCl2, 5 mM glucose with either 2 mM Hepes (pH 8.0) or 20 mM MES (pH 5.0, fusion buffer)) containing 0.32 M sucrose. The dilution was mixed with prostasome such that the ratio of prostasome:sperm protein was 2:1. The mixture was allowed to react at 37° C. for 15 minutes. The reaction product was centrifuged at 600×g for 10 minutes, and the precipitate was collected, resuspended in BWW buffer and used in the experiment. […] Also, the binding of prostasome was the highest at a pH of 5.0 similar to the internal acidity of the female vagina and decreased toward alkaline pH values. […] In order to examine the formation of cyclic ADP-ribose and nicotinic acid adenine dinucletide phosphate which are typical metabolites of CD38, the sperm to which prostasome was unbound or bound was treated with progesterone, after which the level of each molecule in the sperm was measured at varying points of time."}, "sperm [5]": {"test_system": "sperm", "assay": "Test for sperm motility by prostasome (CASA)", "assay_type": "cell-based, human", "settings": "prostasome-bound sperm treated with progesterone", "procedure": "Sperm motility was measured using a CASA (computer assisted sperm analysis) system (IVOS, Hamilton Thorne Biosciences, USA). The sperm suspension was titrated onto a sperm analysis slide (2X-CEL, Hamilton Thorne Biosciences, USA) having a depth of 20 μm and was automatically photographed using a 4× magnification lens, followed by analysis."}, "CD31": {"target": "T1, CD31 (Homo sapiens, UniProt P16284)", "T1 construct": "endogenous in cells; host or cells: isolated sperm", "assay": "Test for activation of CD31 in sperm by CD38 (immunoprecipitation, Western blot)", "assay_type": "cell-based", "settings": "sperm treated with 600 ng/ml CD38 for 0, 15, 30 min", "procedure": "In order to test the activation of CD31 in sperm, the isolated sperm were treated with 600 ng/ml CD38 for each of 0 min, 15 min and 30 min, and then buffer was added thereto to lyse the cells. Also, CD31 antibody was used to perform immunoprecipitation, and Western blot was performed using each antibody in order to examine the phosphorylation of CD31 and to examine interacting proteins."}}, "note": "Entries after “also recorded” stand apart in the source; their conditions may differ."}
{"molecule": "N=c1c2nc(Br)n3c2ncn1C1OC(COP(=O)(O)OP(=O)(O)OCC2OC3C(O)C2O)C(O)C1O", "note": "(stereo not drawn) [8-Br-cADPR]", "values": [{"measurement": "pattern of a continuous increase in calcium by progesterone", "setting": "sperm [1]; prostasome-bound sperm pretreated with antagonist, then progesterone", "value": "inhibited"}, {"measurement": "reduction of fertilizing ability", "setting": "mouse oocytes", "value": "about 70%"}]}
{"molecule": "COC(=O)[C@H](CCSC)NC(=O)c1ccc(NC[C@@H](N)CS)cc1-c1ccccc1", "note": "[FTI-277]", "values": [{"measurement": "CD38-induced increase in motility of sperm with inhibitor", "setting": "sperm [2]", "value": "inhibited"}]}
{"molecule": "COc1cccc(-c2cc(=O)c3ccccc3o2)c1N", "note": "[PD98059]", "values": [{"measurement": "acrosome reaction of CD38-treated sperm with inhibitor", "setting": "sperm [3]", "value": "inhibited"}, {"measurement": "CD38-induced increase in motility of sperm with inhibitor", "setting": "sperm [2]", "value": "inhibited"}]}
{"molecule": "CN(C)S(=O)(=O)c1ccc2c(c1)/C(=C/c1cc3c([nH]1)CCCC3)C(=O)N2", "note": "[Su6656]", "values": [{"measurement": "acrosome reaction of CD38-treated sperm with inhibitor", "setting": "sperm [3]", "value": "inhibited"}]}
{"molecule": "CC(=O)[C@H]1CC[C@H]2[C@@H]3CCC4=CC(=O)CC[C@]4(C)[C@H]3CC[C@]12C", "note": "[progesterone]", "values": [{"measurement": "intracellular calcium release by progesterone", "setting": "sperm [1]; prostasome-bound sperm", "value": "intracellular calcium release immediately occurred"}, {"measurement": "intracellular calcium reaction by progesterone", "setting": "sperm [1]; prostasome-unbound sperm", "value": "immediate calcium reaction"}, {"measurement": "formation of nicotinic acid adenine dinucletide phosphate in sperm", "setting": "sperm [4]; prostasome-bound or -unbound sperm treated with progesterone", "value": "not formed"}, {"measurement": "synthesis of cyclic ADP-ribose in sperm", "setting": "sperm [4]; prostasome-bound sperm treated with progesterone, within several seconds", "value": "rapidly increased"}, {"measurement": "increase of sperm motility", "setting": "sperm [5]", "value": "about 2 times"}]}
{"molecule": "CD38: purified water-soluble CD38 (sCD38), ADP-ribosyl cyclase, a cell membrane protein", "values": [{"measurement": "acrosome reaction of sperm", "setting": "sperm [3]; sperm with purified CD38 at 37° C. for 2 hours, then A23187 40 min", "value": "significantly increased"}, {"measurement": "motility of sperm", "setting": "sperm [2]", "value": "significantly increased"}, {"measurement": "motility of sperm", "setting": "sperm [2]; listed as sCD38", "value": "increased"}, {"measurement": "phosphorylation of CD31", "setting": "CD31", "value": "increased with time; also recorded: increased over time"}]}
